Assay results taken from patent USRE36736E, “Substituted pyrroles” (Hoffman-La Roche Inc., priority 1998, dated 2000).

Molecular target: protein kinase C
Assay: inhibition of protein kinase C in vitro (protein kinase-induced incorporation of 32P from [γ-32P]ATP into histone)
Assay type: biochemical
Details: histone substrate, read-out: IC50: concentration which reduces by 50% the protein kinase-induced incorporation of ^32 P from [γ-^32 P]ATP into histone
Excerpt: The IC50 figures in the following Table, represent that concentration of test compound which reduces by 50% the protein kinase-induced incorporation of ^32 P from [γ-^32 P]ATP into histone.

`Cn1cc(C2=C(c3cn(CCCSC(=N)N)c4ccccc34)C(=O)NC2=O)c2ccccc21` [3-[1-[3-(amidinothio)propyl]-3-indolyl]-4-(1-methyl-3-indolyl)-1H-pyrrole-2,5-dione] was tested. Which IC50 did it give?
The IC50 was 10 nM.

With `Cn1cc(C2=C(c3cn(CCCN=C=S)c4ccccc34)C(=O)NC2=O)c2ccccc21` [3-[1-(3-isothiocyanatopropyl)-3-indolyl]-4-(1-methyl-3-indolyl)-1H-pyrrole-2,5-dione] as the molecule, how does the IC50 read?
The IC50 was 8 nM.

How did the IC50 turn out when `Cn1cc(C2=C(c3cn(CCC(N)=O)c4ccccc34)C(=O)NC2=O)c2ccccc21` [3-[1-(2-carbamoylethyl)-3-indolyl]-4-(1-methyl-3-indolyl)-1H-pyrrole-2,5-dione] was run?
Its IC50 is 500 nM.
